# From patent US9889123B2, “Polymorphs of deuterated omega-diphenylurea or salts thereof” (Suzhou Zelgen Biopharmaceuticals Co., Ltd., priority 2012, dated 2018)
# Experiments:
# Type in all cases: physicochemical
# [1] = Accelerated stability test; settings: 40° C., 75% RH, 1-6 months
# [2] = Drug hygroscopicity test (Chinese Pharmacopoeia 2010 edition, Appendix XIX J); settings: humidistatic dryer (saturated ammonium sulfate) at 25° C.±1° C. for 24 hours
# Description: Take 4 dry glass weighing bottles with a top (The outer diameter was 60 mm and height was 30 mm). On the day before the test, the bottles was placed in a glass dryer (A saturated ammonium sulfate solution was placed in the lower part thereof) in a thermostatic and humidistatic chamber at 25° C.±1° C. (hereinafter, “a humidistatic dryer at 25° C.±1° C.”). The weighing bottle and its top were placed separately without the top on the bottle. Cover the glass dryer closely.
# After each empty weighing bottle together with its top were placed in a humidistatic dryer at 25° C.±1° C. for 24 hours, weigh a set (the weighing bottle+its top) as a unit precisely respectively, recorded as m1. Take a sample appropriately, tile it in a glass weighing bottle weighed at a sample thickness of about 1 mm, and cover the bottle. Precisely weigh the weighing bottle with its top and the sample, recorded as m2. […] Then take off the top of the weighing bottles, and put the bottle and its top in the humidistatic dryer at 25° C.±1° C. for 24 hours.
# After each sample were placed in a humidistatic dryer at 25° C.±1° C. for 24 hours, cover the weighing bottles with their tops respectively, and precisely weigh each weighing bottle with its top and the sample at this specific moment, recorded as m3. […]
# [3] = Solubility in solvents (description of the compound)
# From the text: The compound of formula I, with a molecular formula of C21H13D3ClF3N4O3 and a molecular weight of 467.84, is a white or off-white crystal powder, odorless and tasteless.
smiles,measurement,setting,value
"[2H]C([2H])([2H])NC(=O)c1cc(Oc2ccc(NC(=O)Nc3ccc(Cl)c(C(F)(F)F)c3)cc2)ccn1 [polymorph VI, 4-(4-{3-[4-chloro-3-(trifluoromethyl)phenyl)-ureido]-phenoxy}-2-(N-1′,1′,1′-trideutero-methyl)picolinamide]",stability of crystal form,[1],very stable
"CNC(=O)c1cc(Oc2ccc(NC(=O)Nc3ccc(Cl)c(C(F)(F)F)c3)cc2)ccn1.Cc1ccc(S(=O)(=O)O)cc1 [polymorph II, methanol solvate of the 1/1 p-toluenesulfonate of 4-(4-{3-[4-chloro-3-(trifluoromethyl)phenyl)-ureido]-phenoxy}-2-(N-1′,1′,1′-trideutero-methyl)pico linamide]",stability of crystal form,[1],very stable
"Cc1ccc(S(=O)(=O)O)cc1.[2H]C([2H])([2H])NC(=O)c1cc(Oc2ccc(NC(=O)Nc3ccc(Cl)c(C(F)(F)F)c3)cc2)ccn1 [polymorph I, 1/1 p-toluenesulfonate of 4-(4-{3-[4-chloro-3-(trifluoromethyl)phenyl)-ureido]-phenoxy}-2-(N-1′,1′,1′-trideutero-methyl)picolinamide]",hygroscopicity,[2],no hygroscopicity
same,weight increase (%),[2],0%
same,stability of crystal form,[1],very stable
same,purity after accelerated stability test,[1]; compared to freshly prepared (0 Months),above 99%
"CCO.Cc1ccc(S(=O)(=O)O)cc1.[2H]C([2H])([2H])NC(=O)c1cc(Oc2ccc(NC(=O)Nc3ccc(Cl)c(C(F)(F)F)c3)cc2)ccn1 [polymorph IV, ethanol solvate of the 1/1 p-toluenesulfonate of 4-(4-{3-[4-chloro-3-(trifluoromethyl)phenyl)-ureido]-phenoxy}-2-(N-1′,1′,1′-trideutero-methyl)pico linamide]",stability of crystal form,[1],very stable
"[2H]C([2H])([2H])NC(=O)c1cc(Oc2ccc(NC(=O)Nc3ccc(Cl)c(C(F)(F)F)c3)cc2)ccn1 [compound of formula I, 4-(4-{3-[4-chloro-3-(trifluoromethyl)phenyl)-ureido]-phenoxy}-2-(N-1′,1′,1′-trideutero-methyl)picolinamide]",solubility in acetone,[3]; solvent acetone,slightly soluble
same,solubility in anhydrous ethanol,[3]; solvent anhydrous ethanol,slightly soluble
same,solubility in dimethyl formamide,[3]; solvent dimethyl formamide,very soluble
same,solubility in dimethyl sulfoxide,[3]; solvent dimethyl sulfoxide,very soluble
same,solubility in glacial acetic acid,[3]; solvent glacial acetic acid,slightly soluble
same,solubility in methanol,[3]; solvent methanol,sparingly soluble
same,solubility in water,[3]; solvent water,practically insoluble
"Cc1ccc(S(=O)(=O)O)cc1.[2H]C([2H])([2H])NC(=O)c1cc(Oc2ccc(NC(=O)Nc3ccc(Cl)c(C(F)(F)F)c3)cc2)ccn1.[2H]C([2H])([2H])NC(=O)c1cc(Oc2ccc(NC(=O)Nc3ccc(Cl)c(C(F)(F)F)c3)cc2)ccn1 [polymorph V, 1/2 p-toluenesulfonate of 4-(4-{3-[4-chloro-3-(trifluoromethyl)phenyl)-ureido]-phenoxy}-2-(N-1′,1′,1′-trideutero-methyl)pico linamide]",stability of crystal form,[1],very stable
